Test results: patent US20090327175A1, “PHARMACOKINETIC MODELING OF MYCOPHENOLIC ACID” (priority 2006, published 2009)
Read-outs that look alike come from different tables or passages of the source.

Experiments:
[1] = 12 h plasma concentration/time profiles from six clinical studies of transplant patients receiving enteric coated mycophenolate salt (Myfortic); assay type: in vivo, human; details: for AUC(0-t): human, plasma, oral, enteric coated mycophenolate salt (Myfortic), read-out: MPA AUC0-12, mean and SD, measured
Procedure: 334, 12 h plasma concentration/time profiles (217 for de novo and 117 for stable patients) are available from six clinical studies of transplant patients receiving enteric coated composition containing mycophenolate salt (Myfortic®) as part of their immunosuppressive drug regimen. Using 20 randomly selected profiles, population PK models (two-compartment for stable patients and a one-compartment for de novo patients) are developed using a Bayesian approach (i.e. approach to statistics in which estimates are based on a synthesis of a prior distribution and current sample data) to estimate the model parameters. The remaining profiles are used to test and validate the models.

[2] = immediately post-transplantation; cited from earlier work

share of de novo patients below lower end of target range for MPA AUC0-12 (30 mg/L·h) ([1]; fixed dose of 720 mg bid, during the two weeks after transplantation): 50%
AUC(0-t) ([1]; 720 mg bid, de novo patients transplanted within the previous two weeks): 32.2 ± 17.5 µg·h/mL
AUC(0-t) ([1]; stable patients): 65.1 ± 26 µg·h/mL
Structure (SMILES): COc1c(C)c2c(c(O)c1C/C=C(\C)CCC(=O)O)C(=O)OC2 [MPA, mycophenolic acid]
optimal target MPA AUC0-12 suggested by previous controlled studies [2]: ~45 µg·h/mL
